The source of these data is ChEMBL document CHEMBL1123745, “Preparation and biological evaluation of a potential photoaffinity label for the prostaglandin H2/thromboxane A2 receptor” (J Med Chem, 1987).

In assay [1] the target is T1, Thromboxane A2 receptor (Homo sapiens) (UniProt P21731).
T1 sequence (whole entry): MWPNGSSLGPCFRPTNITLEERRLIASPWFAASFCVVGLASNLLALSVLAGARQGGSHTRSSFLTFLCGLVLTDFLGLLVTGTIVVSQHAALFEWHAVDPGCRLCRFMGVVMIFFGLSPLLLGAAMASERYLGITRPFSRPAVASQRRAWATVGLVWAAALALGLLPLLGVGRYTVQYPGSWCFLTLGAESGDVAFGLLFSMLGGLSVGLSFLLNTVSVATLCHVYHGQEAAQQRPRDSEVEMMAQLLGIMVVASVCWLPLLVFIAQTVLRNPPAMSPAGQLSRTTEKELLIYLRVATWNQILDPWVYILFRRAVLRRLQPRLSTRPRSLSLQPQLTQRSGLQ
The experiment in a line: Ability to inhibit the U-46,619 (TXA2 agonist,3uM) induced aggregation in human platelets; range (5-20 uM). Type of assay: functional.

Assay [2] is described as follows: Ability to inhibit ADP (10 uM) induced aggregation in human platelet rich plasma (PRP) relative to 13-azaprostanoic acid. Type of assay: functional.
A short description of assay [3]: Ability to inhibit U-46,619 (0.5 uM) induced aggregation in human platelet rich plasma (PRP) relative to 13-azaprostanoic acid. The format is functional.
For assay [4], the target named is T1, Thromboxane A2 receptor (Homo sapiens). The experiment in a line: Ability to inhibit the U-46,619 (TXA2 agonist, 3 uM). Type of assay: functional.
The species entered for another assay is Homo sapiens. The experiment in a line: Inhibition of [3H]U-46619 binding in dark incubated platelets. The format is functional.
Assay [5] deals with T1, Thromboxane A2 receptor (Homo sapiens). The experiment in a line: Inhibition of UV-irridiated platelets relative to dark incubated platelets after irreversible inhibition of U-46,619 binding after photoactivation (p<0.02). The note with it: concentration not given here.
The target is the same in assay [6]. Put plainly: Ability to inhibit the U-46,619 (TXA2 agonist,3 uM) induced aggregation in human platelets was determined. Type of assay: functional.

Regarding `O=C(O)CCCCCCC1CCCC1NCCCc1ccc([N+](=O)[O-])cc1` (trans isomer), the ED50 in assay [1] was 20 µM. Consider `[N-]=[N+]=Nc1ccc(CCCNC2CCCC2CCCCCCC(=O)O)cc1` (trans isomer) [listing 1 of 2 here], for which the Inhibition in assay [2] came to 19%; in assay [3], 63%. For the compound `[N-]=[N+]=Nc1ccc(OCCCNC2CCCC2CCCCCCC(=O)O)cc1` (trans isomer), the values for the Inhibition in assay [2] and in assay [3] were 50% and 38%, respectively. The compound also had an ED50 in assay [1] of 20 µM. In assay [4], `O=C(O)CCCCCCC1CCCC1NCCCOc1ccccc1` (trans isomer) displayed an ED50 of 20 µM. In assay [1], `O=C(O)CCCCCCC1CCCC1NCCCOc1ccccc1` (stereo not given) gave an ED50 of 20 µM. Regarding `O=C(O)CCCCCCC1CCCC1NCCCc1ccc([N+](=O)[O-])cc1` (cis isomer), the ED50 in assay [1] was 20 µM.

Consider `[N-]=[N+]=Nc1ccc(CCCNC2CCCC2CCCCCCC(=O)O)cc1` (trans isomer) [listing 2 of 2 here], for which the ED50 in assay [1] worked out at 20 µM. Same read-out and setting: under `O=C(O)CCCCCCC1CCCC1NCCCOc1ccc([N+](=O)[O-])cc1` (stereo in doubt) stands 20 µM; under `O=C(O)CCCCCCC1CCCC1NCCCOc1ccc([N+](=O)[O-])cc1` (trans isomer), 20 µM. In turn, `Nc1ccc(OCCCNC2CCCC2CCCCCCC(=O)O)cc1` (trans isomer) had an ED50 in assay [1] of 20 µM. In the case of `[N-]=[N+]=Nc1ccc(CCCNC2CCCC2CCCCCCC(=O)O)cc1[127I]` (trans isomer), the Inhibition in assay [2] worked out at 15%; in assay [3] it was 81%. This compound displayed a Ki in the assay filed under Homo sapiens of 0.29 µM. Take `Nc1ccc(CCCNC2CCCC2CCCCCCC(=O)O)cc1` (trans isomer): in assay [1], the ED50 amounted to 20 µM.

The compound `[N-]=[N+]=Nc1ccc(CCCNC2CCCC2CCCCCCC(=O)O)cc1` (cis isomer) came in with an ED50 in assay [1] of 20 µM. As for `[N-]=[N+]=Nc1ccc(CCCNC2CCCC2CCCCCCC(=O)O)cc1I` (trans isomer), the inhibition in assay [5] worked out at 38%. In assay [6], this compound came in with an ED50 of 2 µM.
